Results published in US20170367338A1, “COMPOSITIONS AND METHODS FOR IMPROVING AGRONOMIC CHARACTERISTICS OF PLANTS” (MONSANTO TECHNOLOGY LLC, priority 2014, published 2017).
Converted amounts (≈) assume the structure as drawn. Like-named read-outs stand apart in the source and are kept apart here. Marks after values point to notes of the source that are not given here.

Legend:
root knot nematode (RKN) [1] = assay: RKN greenhouse soil assay on cucumber plants; format: in vivo; conditions: for percent control (galling reduction), Acetone 1 mg/kg: Acetone formulation (10% acetone in 0.05% Triton X 100)
Excerpt: Cucumber seeds are planted in a sandy soil mixture in two inch square plastic pots. When the cotyledons are fully opened and just as the first leaf begins to emerge, usually 7 days after planting, chemistry for the 7 day treatment is applied. One week later the chemistry for the 0 day treatment is applied. Separate plants are used for each application. The plants are generally in the 1-2 leaf stage now. At least four hours after the chemistry application the pots are inoculated with root knot nematode (RKN) eggs. Plants are rated for galling 14 days after the egg inoculation.
(§1) One milligram of chemistry per four pots is equal to one kilogram per hectare of chemical. A standard test uses four replications. For rates above 2 kg/ha, the desired amount of chemical is weighed into a 30 ml vial (example: 8 kg/ha rate =8 mg chemical in 30 ml vial). The chemical is dissolved in 2 ml of appropriate solvent, generally acetone. For rates below 2 kg/ha, 2 milligrams of chemistry is weighed into the vial and dissolved in 2 ml of the solvent. The appropriate amount of chemical concentrate is then pipetted into a separate 30 ml vial and solvent is added to bring the volume to 2 ml (example 0.5 kg/ha=0.5 ml of concentrate+1.5 ml solvent). Each dissolved concentrate is then brought to a total of 20 milliliters using 0.05% Triton X 100 surfactant solution.
(§2) Pots to be treated are moist but not saturated. To each of four pots, five milliliters of the appropriate chemical solution is pipetted to the media surface making sure to avoid contact with the base of the plant. Immediately following chemical application, using a mist nozzle, the pot surface is wetted sufficiently to saturate the pot watering in the chemistry. The chemical application is done in the morning.
(§3) Nematode eggs, either SCN or RKN, are added to distilled water to create a concentration of 1000 vermiform eggs […]. At least four hours after chemical treatment the eggs are applied to the treated pots plus non-treated check plants. A small hole about 1 cm deep is punched into the pot surface. One milliliter of the nematode egg slurry is pipetted into the hole. Immediately afterwards the hole is gently covered. Watering of the test plants is then restricted to only water as needed to prevent wilt for a period of 24 hours. After the 24 hour restricted watering, normal sub-irrigation watering is done for the duration of the test.

root knot nematode (RKN) [2] = assay: RKN greenhouse soil assay on cucumber plants; format: in vivo; conditions: Radex emulsifiable concentrate formulation (6.25% active ingredient)
Meloidogyne incognita [3] = assay: M. incognita miniaturized greenhouse assay on cucumber seedlings; format: in vivo; conditions: 1 ppm
Description: The test compound is dissolved in an acetone solution and added to water. A sprouted cucumber seedling is placed into a vial with dry sand and the water-chemical solution is added immediately. Twenty four hours later Meloidogyne incognita eggs are added to the vials and 10 to 12 days later the roots are evaluated for nematode galling.
Cucumber seeds are sprouted for 3 days in moist paper towels. Acceptable sprouts should be 3 to 4 cm long with several lateral roots just emerging. Stock solutions of chemistry are prepared in a mixture of acetone and Triton X100 (412 mg in 500 mL) to a final concentration of 5 mg/mL. The chemical stock solution is then added to 10 mL deionized water plus 0.015% Triton X100 and mixed thoroughly. This is enough to test each condition in triplicate. Ten mL dry sand is added to each vial. At this time the solubility of the chemistry is visually determined and recorded as either ppt (large precipitates) or cloudy (fine precipitates). Seedlings are planted by tilting the vial and laying the seedling in the correct orientation so that the cotyledons are just above the sand and then tilting back to cover the radicles with sand. 3.3 ml water/chemical mix is added to each vial and the vials placed in racks under fluorescent light banks. The vials are inoculated two days after planting by adding 500 vermiform M. incognita eggs to each vial in 50 uL of deionized or spring water. The vials are then kept under the fluorescent lamps at ambient room temperature and watered as needed with 1mL deionized water, usually twice during duration of test. Harvest of the cucumber plants is done 10 to 12 days after inoculation by washing sand off the roots. A root gall rating and visual phytotoxicity rating is assigned using the following scales: Gall rating scale (Gall: % root mass galled): 0=0-5%; 1=6-20%; 2=21-50%; and 3=51-100%. The average of the triplicate gall rating is then calculated: green=0.00-0.33 (no galls); yellow=0.67-1.33 (mild galling); orange=1.67-2.33 (moderate galling); red=2.67-3.00 (severe galling). Visual phytotoxicity scale is also assigned (Vis. tox; visual reduction in root mass compared to the control): rs1=mild stunting; rs2=moderate stunting; rs3=severe stunting.

[4] = format: in vivo
Description: Acute oral toxicity testing was performed in mice in accordance with test method P203.UDP, as administered by Eurofins/Product Safety Laboratories (Dayton, New Jersey). CD-1/Swiss derived albino mice were obtained and group housed in suspended solid bottom caging. The mice were fed rodent chow and filtered tap water was supplied ad libitum. Following acclimation to the laboratory setting, a group of animals was fasted overnight by removing food from the cages. After the fasting period, three female mice were selected based on vitality and initial body weights. The individual compound doses were calculated from these body weights.
The test substance was prepared as a 1% (50 mg/kg) or 5% (500 mg/kg) weight to weight (w/w) mixture in a 0.5% w/w solution of carboxymethylcellulose (CMC) in distilled water. A tissue homogenizer was used to create a homogeneous mixture. A dose of 50 or 500 mg/kg was administered to three healthy mice per dose level by oral intubation using a ball-tipped gavage needle attached to a syringe. After administration, the animals were returned to their cages, and feed was replaced immediately after dosing.
Body weights were recorded prior to initiation and on Days 7 and 14 or a soon as possible after death.

[5] = test system: soybean cyst nematode (SCN); assay: SCN greenhouse sand assay on soybean plants; format: in vivo; conditions: Glycine max, 672 h, read-out: percent control (cyst number reduction) relative to the control blank treatment
Excerpt: Soybeans seeds are planted in 100% sand in two inch square plastic pots. Chemical treatment is done when the soybeans show the first trifoliate beginning to emerge about 10 to 12 days after planting. At least four hours after chemical application the nematode soybean cyst nematode (SCN) eggs are applied and 28 days after the egg inoculation the test is harvested.
as §1, §2, §3

Meloidogyne incognita [6] = assay: Fall nematicidal field test on squash
Description: The soil was a native prairie/pasture covering silty clay loam soil. […] Total volume of each hole was about 1.2 cubic feet. […] Holes were filled and then re-filled 5 days later after settling. […] Organic matter was 0.2% and pH was 6.8.
Treatments were arranged in a block design with the blocks laid out perpendicular to the primary slope and parallel to secondary slope. There are 7 inoculated controls and 5 non-inoculated controls and the distributions of disease severity appeared independent of location.
The resultant mix is the same as used in the standard greenhouse assays (10% acetone, 0.05% X100). The oxamyl treatments were prepared from Vydate 2L formulated the same way. The 500 ml was placed in a watering can and the entire volume was evenly sprinkled over the surface of the plot. No runoff occurred and pooling, if any, was short lived. The final drench volume was 0.58 ml/cm^2, compared to 0.2 ml/cm^2 used in our greenhouse, however the microplots are much deeper so the drench volume applied per soil volume treated is roughly the same.
Meloidogyne incognita eggs were harvested over a two week period and stored at approximately 5° C. until needed. A stock of 5.6 million vermiform eggs was adjusted to 9000/m1 in 620 ml. One day after treatment, two holes were made in each plot about 7 cm apart and equidistant from the squash plants. Five ml of egg suspension was pipetted into each hole, which was then sealed and the plot lightly watered. A total of 90,000 vermiform eggs were added to each plot.
The first root evaluation was at 28 DAT. The tops were cut off and weighed immediately in the field, and the roots were carefully dug out so as not to disturb the remaining plant.

root knot nematode = assay: Pre-plant incorporated (PPI) greenhouse test of root knot nematode on cucumber plants; format: in vivo; conditions: for pest or weed control at 4000 g/ha: 4 kg/ha, read-out: percent control (galling reduction), 4 kg/ha rate; for pest or weed control at 8000 g/ha: 8 ka/ha, read-out: percent control (galling reduction), 8 ka/ha rate
Excerpt: The PPI test examines the effect of pre-incorporation of compounds in soil and longer aging to simulate in furrow methods of nematicide application in the field. The PPI test exposes compounds to a higher volume of soil and drying which can result in more severe soil binding. Compounds are also aged for longer periods which can lead to more extensive biotic and abiotic degradation further limiting activity.
The chemically treated soil (sandy soil mix) for all treatment days (e.g., 7 days, 14 days, 21 days) treatments is potted into their appropriate pots. On the same day the 7 day treatment pots are seeded. One week later eggs are applied and 14 days after egg application the test is harvested. The 14 day treatments are planted 7 days after the first planting. The 14 day planting and 7 day inoculation happen on the same day. One week later the 14 day treatments are inoculated with eggs. These are harvested 14 days after the inoculation. The 21 day treatments are planted 14 days after the first planting. The 14 day inoculation and 21 day planting are done on the same day. One week later the 21 day plants are inoculated with eggs. The 7 day treatment is harvested the same day as the 21 day inoculation. Fourteen days after inoculation the 21 day plants are harvested.
For each compound a stock is prepared using 4 mg material in 4 ml of acetone. The soil is mixed by placing 80 ml of field soil and 320 ml of sand in a plastic bag and mixing well. The formulation for treatment is done by adding 2.13 ml (8 kg/ha rate), 1.06 ml (4 kg/ha rate) or 0.53 ml (2 kg/ha rate) to a vial and raising it with 10 ml in 0.05% X100. Soil is then treated by adding the entire 10 ml to the 400 ml of mix in the bag. The treated soil is immediately mixed well in the sealed bag to distribute the compound evenly. Approximately 95 ml is used to fill each 2-inch square pot up to the top with some soil compression and flattening. For each compound and for the control treatments 4 pots are filled. All pots are watered until moist but with no run-out through the bottom.
The PPI test simulates 8, 4 and 2 kg/ha rates incorporated 15 cm deep in the field and is equivalent to the 2, 1 and 0.5 kg/ha drench application rates in the standard 2-inch pot cucumber greenhouse assay.

C. elegans = assay: Three day C. elegans well assay; format: in vivo; conditions: Caenorhabditis elegans
Description: Various compounds were tested for nematicidal activity against C. elegans using contact assays in wells. The assays were performed as described below. The test compounds were solubilized in DMSO at 10 mg/ml to create 100× stock solutions. A dilution series was created by diluting the stock solution with DMSO. For each well assay 4 ul of the appropriate dilution is added to a well of a test plate. A 400 ul aliquot of bacterial stock (in M9 buffer with ampicillin and nystatin) are added to each well of the test plate. Worms are added and the test plate placed on a rotary shaker and held at 20° C. Worms are examined and scored at 4 hrs, 24 hrs, 48 hrs and 72 hours. L1 worms and L4 worms were used in the assay. L1 worms are prepared by plating eggs on a plate without a bacterial feeding layer. The eggs hatch and arrest at the L1 stage. This L1 stage population is then used to create a stock for the experiments. To create an L4 stage stock a small number of worms are taken from an overgrown and starved plate of worms and seeded on a plate with a bacterial feeder layer. A 25 ul aliquot of worms is added to each well in the assay.

[7] = 504 h, twenty one day pre-plant incorporated
[8] = 336 h, fourteen day pre-plant incorporated, test a
[9] = fourteen day pre-plant incorporated, test a

## Brc1ccc(-c2noc(-c3cccs3)n2)cc1 [compound 1846]
Root knot nematode (RKN) [1]
  percent control (galling reduction), Acetone 1 mg/kg: 88%
Root knot nematode (RKN) [2]
  percent control (galling reduction), Radex 1 mg/kg: 86%

## Brc1ccc(-c2cnc(-c3cccs3)o2)cc1 [compound 4776]
Meloidogyne incognita [3]; Table 1C test a
  1 ppm gall rating: 1 (1=6-20%)
Meloidogyne incognita [3]; Table 1C test c
  1 ppm gall rating: 1 (1=6-20%)
[4]; 500 mg/kg oral, three female mice, observed up to 14 days
  acute oral toxicity: mortality and signs: two animals died within three days
[4]; mice, estimate based on the 50 and 500 mg/kg studies
  oral toxicity: lower than 500 mg/kg
[5]; 0.5 kg/ha, test c
  pest or weed control at 500 g/ha: 78%
[5]; 1 kg/ha, test c
  pest or weed control at 1000 g/ha: 89%
[5]; 2 kg/ha, test a
  pest or weed control at 2000 g/ha: 99%
Meloidogyne incognita [6]; 2 kg ai/ha, squash
  RW28 root weight at 28 days after treatment: 7.5
  RW43 root weight at 43 days after treatment: 13.0
  TW28 top weight at 28 days after treatment: 250.8
Meloidogyne incognita [6]; both the 28 day and the 43 day time point
  control of root galling compared with oxamyl at an equivalent rate: statistically better than oxamyl
Root knot nematode; [7]
  pest or weed control at 4000 g/ha: 50%
  pest or weed control at 8000 g/ha: 80%

## Brc1ccc(-c2noc(-c3ccco3)n2)cc1 [compound 5467]
Root knot nematode (RKN) [1]
  percent control (galling reduction), Acetone 1 mg/kg: 73%
Root knot nematode (RKN) [2]
  percent control (galling reduction), Radex 1 mg/kg: 88%
Root knot nematode; [8]
  pest or weed control at 4000 g/ha: 76%
Root knot nematode; [9]
  percent control (galling reduction), 2 kg/ha rate: 71^a percent
  pest or weed control at 8000 g/ha: 100%

## Cc1cc(Br)ccc1-c1noc(-c2ccco2)n1 [compound 5825]
C. elegans; 24 h, L1 larvae, one day of exposure, read-out: EC50 L1 1D
  EC50: 0.4 µg/mL (≈ 1.31 µM)
C. elegans; 24 h, L4 larvae, one day of exposure, read-out: EC50 L4 1D
  EC50: 1.6 µg/mL (≈ 5.24 µM)
C. elegans; 48 h, L1 larvae, two days of exposure, read-out: EC50 L1 2D
  EC50: 0.4 µg/mL (≈ 1.31 µM)
C. elegans; 48 h, L4 larvae, two days of exposure, read-out: EC50 L4 2D
  EC50: 1.6 µg/mL (≈ 5.24 µM)
C. elegans; 72 h, L1 larvae, three days of exposure, read-out: EC50 L1 3D
  EC50: 0.4 µg/mL (≈ 1.31 µM)
C. elegans; 72 h, L4 larvae, three days, effects on the second generation larvae, read-out: EC50 L4 3D (F1)
  EC50: 1.6 µg/mL (≈ 5.24 µM)
Root knot nematode (RKN) [1]; 0 day treatment, 0.1 kg/ha, test a
  percent control (galling reduction) relative to the control blank treatment: 50^a percent
Root knot nematode (RKN) [1]
  percent control (galling reduction), Acetone 1 mg/kg: 96%
Root knot nematode (RKN) [2]
  percent control (galling reduction), Radex 1 mg/kg: 96%
Root knot nematode; [8]
  pest or weed control at 4000 g/ha: 98%
Root knot nematode; [9]
  percent control (galling reduction), 2 kg/ha rate: 69^a percent
  pest or weed control at 8000 g/ha: 96%
